The supplement of paper PMC10307832

Legend:
Test in all cases: relative viability (nuclei count vs DMSO), 5 days (fraction); higher = more cells survive
OSI-027 + Foretinib = compound: COc1cccc2cc(-c3nc([C@H]4CC[C@H](C(=O)O)CC4)n4ncnc(N)c34)[nH]c12 [OSI-027] + COc1cc2c(Oc3ccc(NC(=O)C4(C(=O)Nc5ccc(F)cc5)CC4)cc3F)ccnc2cc1OCCCN1CCOCC1 [Foretinib] (partner 0.25 µM)
Procedure, shortened: (§1)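 The day after seeding in 1536-well plates, lung cancer cell lines were treated by pin tool with a single drug, or with a fixed anchor-drug dose together with five library-drug doses (not always all listed) in √10 steps. After 5 days, a combined fix-and-stain solution (final 0.05% Triton X-100, 1% formaldehyde, 1 ug/ml Hoechst) was added. Nuclei counted on 4× images gave relative viability as treated counts over vehicle counts, reported as the median of duplicate plates.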

OSI-027 + Phenformin = compound: COc1cccc2cc(-c3nc([C@H]4CC[C@H](C(=O)O)CC4)n4ncnc(N)c34)[nH]c12 [OSI-027] + N=C(N)NC(=N)NCCc1ccccc1 [Phenformin] (partner 250 µM)
Procedure, shortened: as §1

OSI-027 + Decitabine = compound: COc1cccc2cc(-c3nc([C@H]4CC[C@H](C(=O)O)CC4)n4ncnc(N)c34)[nH]c12 [OSI-027] + Nc1ncn([C@H]2C[C@H](O)[C@@H](CO)O2)c(=O)n1 [Decitabine] (partner 2 µM)
Procedure, shortened: as §1

OSI-027 + Olaparib = compound: COc1cccc2cc(-c3nc([C@H]4CC[C@H](C(=O)O)CC4)n4ncnc(N)c34)[nH]c12 [OSI-027] + O=C(c1cc(Cc2n[nH]c(=O)c3ccccc23)ccc1F)N1CCN(C(=O)C2CC2)CC1 [Olaparib] (partner 8 µM)
Procedure, shortened: as §1

Cell Line | relative viability (OSI-027 + Foretinib; first compound 0.01 µM) | relative viability (OSI-027 + Foretinib; first compound 0.03162 µM) | relative viability (OSI-027 + Foretinib; first compound 0.1 µM) | relative viability (OSI-027 + Foretinib; first compound 0.3162 µM) | relative viability (OSI-027 + Foretinib; first compound 1 µM) | relative viability (OSI-027 + Phenformin; first compound 0.01 µM) | relative viability (OSI-027 + Phenformin; first compound 0.03162 µM) | relative viability (OSI-027 + Phenformin; first compound 0.1 µM) | relative viability (OSI-027 + Phenformin; first compound 0.3162 µM) | relative viability (OSI-027 + Phenformin; first compound 1 µM) | relative viability (OSI-027 + Decitabine; first compound 0.01 µM) | relative viability (OSI-027 + Decitabine; first compound 0.03162 µM) | relative viability (OSI-027 + Decitabine; first compound 0.1 µM) | relative viability (OSI-027 + Decitabine; first compound 0.3162 µM) | relative viability (OSI-027 + Decitabine; first compound 1 µM) | relative viability (OSI-027 + Olaparib; first compound 0.01 µM) | relative viability (OSI-027 + Olaparib; first compound 0.03162 µM) | relative viability (OSI-027 + Olaparib; first compound 0.1 µM) | relative viability (OSI-027 + Olaparib; first compound 0.3162 µM) | relative viability (OSI-027 + Olaparib; first compound 1 µM)
SW 1573 | 0.753 | 0.923 | 0.713 | 0.59 | 0.787 | 0.406 | 0.286 | 0.343 | 0.312 | 0.191 | 0.411 | 0.535 | 0.438 | 0.388 | 0.284 | 0.485 | 0.513 | 0.398 | 0.444 | 0.293
NCI-H2085 | 1.09 | 1.01 | 0.895 | 1.05 | 0.591 | 0.727 | 0.701 | 0.704 | 0.623 | 0.503 | 0.545 | 0.562 | 0.611 | 0.52 | 0.446 | 0.751 | 0.771 | 0.726 | 0.763 | 0.633
ABC-1 | 1.13 | 0.996 | 0.904 | 0.652 | 0.567 | 0.237 | 0.244 | 0.236 | 0.2 | 0.197 | 1.03 | 1.33 | 1.16 | 1.05 | 0.762 | 0.667 | 0.686 | 0.795 | 0.859 | 0.404
NCI-H1299 | 1.14 | 1.13 | 1.09 | 1.14 | 1.03 | – | – | – | – | – | – | – | – | – | – | 1.02 | 0.998 | 0.956 | 1.04 | 0.796
LU99A | 0.75 | 0.763 | 0.685 | 0.517 | 0.302 | 0.777 | 0.844 | 0.869 | 0.593 | 0.292 | 0.773 | 0.966 | 0.675 | 0.485 | 0.216 | 0.279 | 0.231 | 0.251 | 0.201 | 0.2
NCI-H2009 | 1.25 | 1.14 | 1.18 | 1.11 | 0.801 | 0.477 | 0.48 | 0.487 | 0.425 | 0.277 | 0.418 | 0.354 | 0.339 | 0.36 | 0.295 | 0.859 | 0.674 | 0.724 | 0.584 | 0.555
LCLC-97TM1 | 0.969 | 0.927 | 0.994 | 0.584 | 0.432 | 0.477 | 0.459 | 0.332 | 0.246 | 0.306 | 0.256 | 0.23 | 0.195 | 0.174 | 0.22 | 0.59 | 0.438 | 0.325 | 0.281 | 0.347
NCI-H1915 | 1.23 | 1.14 | 1.12 | 1.03 | 0.582 | 0.38 | 0.38 | 0.359 | 0.381 | 0.32 | 0.25 | 0.257 | 0.262 | 0.26 | 0.242 | 0.284 | 0.274 | 0.259 | 0.298 | 0.237
NCI-H2342 | 1.14 | 0.95 | 1.05 | 0.83 | 0.648 | 0.524 | 0.533 | 0.564 | 0.481 | 0.445 | 0.793 | 0.687 | 0.68 | 0.662 | 0.603 | 0.522 | 0.385 | 0.439 | 0.338 | 0.314
EKVX | 0.707 | 0.764 | 0.74 | 0.568 | 0.581 | 0.238 | 0.205 | 0.245 | 0.222 | 0.195 | 0.643 | 0.329 | 0.363 | 0.284 | 0.28 | 0.659 | 0.935 | 0.88 | 0.832 | 0.516
HCC-78 | 0.551 | 0.511 | 0.52 | 0.425 | 0.366 | 0.624 | 0.626 | 0.593 | 0.558 | 0.432 | 0.77 | 0.749 | 0.616 | 0.547 | 0.457 | 0.769 | 0.699 | 0.723 | 0.558 | 0.397
NCI-H1703 | 0.324 | 0.336 | 0.291 | 0.429 | 0.324 | – | – | – | – | – | – | – | – | – | – | 0.424 | 0.552 | 0.316 | 0.304 | 0.19
EBC-1 | 0.112 | 0.104 | 0.1 | 0.116 | 0.124 | – | – | – | – | – | – | – | – | – | – | 0.662 | 0.736 | 0.67 | 0.579 | 0.331
CAL-12T | 1.16 | 1.22 | 1.14 | 1.13 | 0.488 | 0.584 | 0.644 | 0.512 | 0.618 | 0.355 | – | – | – | – | – | 0.751 | 0.749 | 0.777 | 0.53 | 0.335
NCI-H1563 | 0.937 | 0.857 | 0.909 | 0.839 | 0.854 | 0.674 | 0.647 | 0.618 | 0.681 | 0.589 | – | – | – | – | – | – | – | – | – | –
NCI-H522 | – | – | – | – | – | 0.72 | 0.57 | 0.583 | 0.506 | 0.508 | 0.705 | 0.724 | 0.626 | 0.629 | 0.582 | 0.544 | 0.668 | 0.524 | 0.679 | 0.449
HCC-44 | – | – | – | – | – | 0.16 | 0.229 | 0.127 | 0.158 | 0.12 | 0.903 | 0.973 | 0.93 | 0.945 | 0.777 | 1.06 | 1.01 | 1 | 1 | 0.716
NCI-H1623 | 0.876 | 0.767 | 0.671 | 0.595 | 0.391 | 0.583 | 0.603 | 0.485 | 0.424 | 0.32 | – | – | – | – | – | – | – | – | – | –
NCI-H1792 | – | – | – | – | – | 0.126 | 0.168 | 0.228 | 0.204 | 0.173 | 0.587 | 0.434 | 0.56 | 0.499 | 0.135 | 0.33 | 0.296 | 0.247 | 0.354 | 0.142
NCI-H2228 | 0.887 | 0.791 | 0.831 | 0.745 | 0.439 | 0.305 | 0.324 | 0.307 | 0.251 | 0.198 | – | – | – | – | – | 0.952 | 0.644 | 0.562 | 0.474 | 0.226
